From patent publication US9828344B2, “Inhibitors of the notch signaling pathway and secretion for use in medicine” (Leibniz-Institut für Altersforschung Fritz-Lipmann-Institut …, priority 2012, dated 2017)
Peptide text beside a SMILES is read from it. * marks the point of attachment. Cbz = O=C(OCc1ccccc1)*; OtBu = CC(C)(C)O*

Columns and labels:
NotchΔE-EGFP [1] = experiment: Reporter localization in U2OS cells stably expressing NotchΔE-EGFP; assay type: cell-based; details: 10 iM, 18 h
Method: FIG. 9: Compound effects are not cell-type specific. U2OS cells stably expressing NotchΔE-EGFP were incubated for 18 h with 10 iM compounds as indicated, fixed and imaged by fluorescence microscopy. […] Arrows, plasma membrane; arrowheads, ER. Asterisks indicate cells where the ER collapsed to large aggregates. Scalebar, 10 im.

NotchΔE-EGFP [2] = experiment: Fluorescence microscopy of reporter localization in HeLa NotchΔE-EGFP cells; assay type: cell-based; details: for localization of NotchΔE-EGFP/NICD-EGFP: 10 μM compound, 24 h; for toxicity in cells: inferred from reversibility after wash-out
Method: FIG. 10: Phenotypes of Notch inhibitors are fully reversible. HeLa NotchΔE-EGFP cells plated in LabTek coverglass were incubated for 18 h with 10 iM of indicated compounds, washed and incubated for indicated times in cell culture medium. Cells were imaged by live-microscopy. […] Scalebar, 10 im.
For a detailed analysis of subcelluar distribution of NotchΔE/NICD the resolution of the HCS images was not sufficient. Therefore, the reporter cell line was plated on coverslips and incubated with 10 μM of individual compounds from the final hit list. After 24 h the localization of NotchΔE-EGFP/NICD-EGFP was determined by fluorescence microscopy. […] (FIG. 8).
Immunofluorescence stainings were made using standard procedures^55. Imaging was performed on a Zeiss Axiovert200 or an Axio Imager, using 63× 1.4NA objectives and Zeiss Axiovision software. For live-imaging cells were plated on Lab-Tek chambered coverglass (Thermo-Fisher). Images were assembled and processed using Adobe Photoshop. For displaying weakly stained ER-tubules/sheets non-linear changes in gamma-settings were used.

NotchΔE-EGFP [3] = experiment: Western blot of NotchΔE-EGFP processing in HeLa NotchΔE-EGFP lysates; assay type: cell-based; details: 10 μM, 18 h
Method: FIG. 2: Selected compounds from final hit list show distinct phenotypes. Hela NotchΔE-EGFP cells were incubated with compounds (10 μM) for 18 h, fixed and analyzed by fluorescence microscopy (a) or lysed, separated by SDS-PAGE, blotted and probed with antibodies against GFP and NICD (b). Tubulin served as loading control. c) Quantitation of NotchΔE-EGFP accumulation and NICD production from 3-4 experiments as shown in (b). […] Arrows, plasma membrane; scalebar, 10 μm.
Next, lysates of HeLa NotchΔE-EGFP cells treated with compounds were analyzed for processing of NotchΔE-EGFP by Western blot using antibodies specific for EGFP and NICD (FIG. 2b, c). The GFP antibody detected both the uncleaved reporter NotchΔE-EGFP and the γ-secretase product NICD-EGFP, whereas the NICD-specific antibody specifically detected cleaved NICD-EGFP. […] The observed effects were not cell type specific, as they were also apparent in U2OS cells stably expressing NotchΔE-EGFP (FIG. 9).

zebrafish embryos = experiment: Zebrafish embryo Notch phenotype (somites, ngn1 qPCR and ISH); assay type: in vivo, zebrafish Danio rerio; details: 50 μM; for ngn1 positive cell clusters in the developing brain (ISH): compared to DMSO controls; for ngn1 positive cell clusters along the spinal cord (ISH): compared to DMSO-treated control embryos; for ngn1 mRNA levels (qPCR): relative to DMSO controls
Method: Cells were incubated with DAPT or 10 μM of the indicated compounds (50 μM in case of FLI-15 and -20) and after 16 h a luciferase assay was performed. […] Changes in relative gene expression levels (fold change) relative to the expression levels in DMSO controls are represented as the mean+/−SD, asterisks indicate p<0.01. Each measurement was taken from two independent samples. Each reaction was measured in triplicate. Changes in the relative expression of ngn1 were standardized to the expression of the housekeeping gene ef1a at 20 hpf. c) ISH with riboprobes specific for ngn1 was performed on dechorionated stage 4 hpf zebrafish embryos. Anterior is to the left, dorsal to the top. Magnifications of the somite region (small box) are shown. Arrows indicate larger ngn1 clusters or stronger ngn1 staining. s, sensory neurons; i, intermediate neurons; m, motor neurons.
FIG. 11: Selected compounds affect somite formation and neurogenesis in vivo in zebrafish embryos. a) Lateral view of typical representative phenotypes induced by DAPT treatment, which were used as a reference to score the effect of compounds. […] Images were taken at 24 hpf. b) Pie chart showing the cumulative relative frequency of the phenotypes in a) at 24 hpf in embryos treated with 20, 50 and 100 iM of the indicated compounds. c) ISH with riboprobes specific for ngn1 was performed on dechorionated stage 4 hpf zebrafish embryos. Anterior is to the left, dorsal to the top. Magnifications of the developing head (box) are shown. Arrows indicate larger ngn1 clusters or stronger ngn1 staining. t, telencephalon; p, protectum; h, hindbrain; d, diencephalon; tg, tegmentum; vrc, ventral rostral cluster.
We wanted to test whether the results obtained with the NotchΔE-EGFP construct are relevant for endogenous Notch signaling. Therefore we made use of C2C12 cells, a well established model for muscle development that expresses endogenous Notch^21,22. After stimulating endogenous Notch signaling by transfecting the Notch ligand Delta, Notch activity was measured by a luciferase assay using a Notch reporter^15 in the presence or absence of compounds (FIG. 4a). […] Next, we tested whether selected compounds would affect Notch signaling in vivo. […] Compounds were added to dechorionated stage 4 hpf zebrafish embryos and the effects were analyzed after 24 h by morphological inspection of somite formation. Phenotypes were ranked to four categories, normal somites, mild somite defects, strong somite defects and developmental delay. […] As an additional parameter we decided to analyze Notch-dependent genes involved in neurogenesis. Primary neurogenesis in zebrafish involves the selection of neuroblasts (repressed by Notch) from proneural clusters (Notch expressing cells), a process regulated in a negative manner by Notch-dependent lateral inhibition^25. Accordingly, neuroblast cells that express the neuronal specification factor neurogenin (ngn1^26) became more abundant when Notch signaling was impaired, for instance upon DAPT treatment^23,27. qPCR analyses on mRNA extracted from equivalent sets of embryos was performed for ngn1 expression (FIG. 4b). […] To confirm the data obtained by qPCR, whole-mount in-situ hybridizations (ISH) using an ngn1 specific riboprobe were performed (FIG. 4c, FIG. 11c). […] Taken together, FLI-06, -14, -15, -19 and -20 inhibited endogenous Notch signaling in vitro and in vivo, corroborating the NotchΔE-EGFP reporter data.
Embryos were obtained from natural spawning of wild-type TüAB strain adults, raised and staged according to supp. Ref 14. DAPT and compounds were applied at 50 iM in E3 embryo medium to zebrafish embryos with chorions torn but not completely removed from sphere stage until the stage of analysis, according to ref 23. Control embryos were mock treated with the same concentration of DMSO dissolved in E3 embryo medium. […]

NotchΔE-EGFP [4] = experiment: Fluorescence microscopy of reporter localization in HeLa NotchΔE-EGFP cells; assay type: cell-based; details: 50 μM compound

SMILES	localization of NotchΔE-EGFP in U2OS cells (NotchΔE-EGFP [1])	localization of NotchΔE-EGFP/NICD-EGFP (NotchΔE-EGFP [2])	toxicity in cells (NotchΔE-EGFP [2])	NICD-EGFP production (NotchΔE-EGFP [3])	NotchΔE-EGFP level (GFP antibody) (NotchΔE-EGFP [3])	ngn1 positive cell clusters in the developing brain (ISH) (zebrafish embryos)	ngn1 positive cell clusters along the spinal cord (ISH) (zebrafish embryos)	ngn1 mRNA levels (qPCR) (zebrafish embryos)	localization of NotchΔE-EGFP/NICD-EGFP (NotchΔE-EGFP [4])
CC1=C(C(=O)OC2CCCCC2)C(c2ccc([N+](=O)[O-])cc2)C2=C(CC(C)(C)CC2=O)N1 (stereo not drawn) [FLI-06, Cyclohexyl 4-(4′-nitrophenyl)-2,7,7-trimethyl-5-oxo-1,4,5,6,7,8-hexahydroquinoline-3-carboxylate]	ER accumulation of the reporter and in some cells aggregation	reduced nuclear fluorescence and localization in intracellular membranes	not acutely toxic in cells	decreased NICD-EGFP production	accumulation of NotchΔE-EGFP	differentially expanded	expanded and denser clusters of ngn1 positive cells	significantly increased	
Cn1c2ccccc2c2c(C(=O)N3CCN(Cc4ccc5c(c4)OCO5)CC3)cn(C3CCCC3)c(=O)c21 [FLI-14]	PM accumulation similar to DAPT	accumulation of the reporter at the PM and in perinuclear Golgi-like structures	not acutely toxic in cells	decreased NICD-EGFP production	accumulation of NotchΔE-EGFP	differentially expanded	expanded and denser clusters of ngn1 positive cells	significantly increased	strong reduction of nuclear NICD-EGFP fluorescence and concomitant accumulation at the PM
Cc1ccc(NC(=O)C(NS(=O)(=O)c2cccc3nsnc23)C(C)C)nc1 (stereo not drawn) [FLI-15]	PM accumulation similar to DAPT	accumulation of the reporter at the PM and in perinuclear Golgi-like structures	not acutely toxic in cells	decreased NICD-EGFP production	accumulation of NotchΔE-EGFP	differentially expanded	expanded and denser clusters of ngn1 positive cells	significantly increased	strong reduction of nuclear NICD-EGFP fluorescence and concomitant accumulation at the PM
CC(C)CC(NC(=O)C(Cc1ccccc1)NC(=O)C1CCCN1C(=O)OCc1ccccc1)C(=O)OC(C)(C)C (stereo not drawn) [FLI-19] (Cbz-Pro-Phe-Leu-OtBu; configuration not given here)	PM accumulation similar to DAPT	accumulation of the reporter at the PM and in perinuclear Golgi-like structures	not acutely toxic in cells		accumulation of NotchΔE-EGFP		increased	did not induce significant changes	strong reduction of nuclear NICD-EGFP fluorescence and concomitant accumulation at the PM
CC(=O)Nc1ccc2nc(NC(=O)CC34CC5CC(CC(C5)C3)C4)sc2c1 [FLI-20]	PM accumulation similar to DAPT	accumulation of the reporter at the PM and in perinuclear Golgi-like structures	not acutely toxic in cells	decreased NICD-EGFP production	accumulation of NotchΔE-EGFP	differentially expanded	expanded and denser clusters of ngn1 positive cells	significantly increased	strong reduction of nuclear NICD-EGFP fluorescence and concomitant accumulation at the PM
